Here are results for 17 compounds from US11319299B2, “Substituted carboxamides as inhibitors of WDR5 protein-protein binding” (PROPELLON THERAPEUTICS INC., priority 2016, dated 2022).

A word on the Kd: it is the constant that tells how readily two partners part at equilibrium.

The target of this test is WDR5 (Homo sapiens (Human), UniProt P61964). Nature of the test: Surface Plasmon Resonance (SPR) assay, KD and residence time. Format: binding. The conditions noted are these: surface plasmon resonance (SPR); read-out: WDR5 binding affinity (KD). On the technique in general: In SPR one partner is held on a chip, and binding of the other changes the refractive index at the surface.
Take `CC1CN(c2cc(F)c(-c3cnc(N4CCN(C5CC5)CC4)nc3)cc2NC(=O)c2ccc(F)cc2C(F)(F)F)CCN1C` (stereo in doubt) [Example 435, N-[5-[2-(4-cyclopropylpiperazin-1-yl)pyrimidin-5-yl]-4-fluoro-2-[(3R)-3,4-dimethylpiperazin-1-yl]phenyl]-4-fluoro-2-(trifluoromethyl)benzamide]: the dissociation constant (Kd) is 1.47 nM.

`CC1CN(c2cc(F)c(-c3ccc(N4CCOCC4)c(F)c3)cc2NC(=O)c2c[nH]c(=O)cc2C(F)F)CCN1C` (stereo in doubt) [Example 448, 4-(difluoromethyl)-N-[4-fluoro-5-(3-fluoro-4-morpholin-4-ylphenyl)-2-[(3R)-3,4-dimethylpiperazin-1-yl]phenyl]-6-oxo-1H-pyridine-3-carboxamide]: the Kd was found to be 1.01 nM.

`C[C@@H]1CN(c2ncc(-c3cc(NC(=O)c4cn(C)c(=O)cc4C(F)(F)F)c(N4CCN(C)[C@H](C)C4)cc3F)cn2)CCO1` (stereo in doubt) [Example 450, N-[4-fluoro-2-[(3R)-3,4-dimethylpiperazin-1-yl]-5-[2-[(2R)-2-methylmorpholin-4-yl]pyrimidin-5-yl]phenyl]-1-methyl-6-oxo-4-(trifluoromethyl)pyridine-3-carboxamide]: the dissociation constant (Kd) is 1.02 nM.

On to `CC1CN(c2ncc(-c3cc(NC(=O)c4ccc(F)cc4C(F)(F)F)c(N4C[C@@H](C)N(C)[C@@H](C)C4)cc3F)cn2)CCO1` (stereo in doubt) [Example 453, 4-fluoro-N-[4-fluoro-5-[2-[(2R)-2-methylmorpholin-4-yl]pyrimidin-5-yl]-2-[(3S,5R)-3,4,5-trimethylpiperazin-1-yl]phenyl]-2-(trifluoromethyl)benzamide], for which the dissociation constant (Kd) was 0.822 nM.

As to `O=C(Nc1cc(-c2cnc(N3CCOCC3)nc2)c(F)cc1N1C[C@H]2CCN[C@H]2C1)c1c[nH]c(=O)cc1C(F)(F)F` (stereo in doubt) [Example 463, N-[4-fluoro-5-(2-morpholin-4-ylpyrimidin-5-yl)-2-[(3aR,6aR)-2,3,3a,4,6,6a-hexahydro-1H-pyrrolo[2,3-c]pyrrol-5-yl]phenyl]-6-oxo-4-(trifluoromethyl)-1H-pyridine-3-carboxamide], the dissociation constant (Kd) is 168 nM.

Take `CC1COCCN1c1ncc(-c2cc(NC(=O)c3cn(C)c(=O)cc3C(F)F)c(N3C[C@@H](C)N(C)[C@@H](C)C3)cc2F)cn1` (stereo in doubt) [Example 475, 4-(difluoromethyl)-N-[4-fluoro-5-[2-[(3R)-3-methylmorpholin-4-yl]pyrimidin-5-yl]-2-[(3S,5R)-3,4,5-trimethylpiperazin-1-yl]phenyl]-1-methyl-6-oxopyridine-3-carboxamide]: the dissociation constant (Kd) worked out at 3.52 nM.

Take `CCCN1CC[C@@H]2CN(c3cc(F)c(-c4cnc(N5CCOCC5)nc4)cc3NC(=O)c3c[nH]c(=O)cc3C(F)(F)F)C[C@@H]21` (stereo in doubt) [Example 476, N-[4-fluoro-5-(2-morpholin-4-ylpyrimidin-5-yl)-2-[(3aR,6aR)-1-propyl-2,3,3a,4,6,6a-hexahydropyrrolo[2,3-c]pyrrol-5-yl]phenyl]-6-oxo-4-(trifluoromethyl)-1H-pyridine-3-carboxamide]: the Kd turned out to be 9.71 nM.

`CN1CC[C@@H]2CN(c3cc(F)c(-c4cnc(N5CCOCC5)nc4)cc3NC(=O)c3c[nH]c(=O)cc3C(F)(F)F)C[C@@H]21` (stereo in doubt) [Example 477, N-[4-fluoro-5-(2-morpholin-4-ylpyrimidin-5-yl)-2-[(3aR,6aR)-1-methyl-2,3,3a,4,6,6a-hexahydropyrrolo[2,3-c]pyrrol-5-yl]phenyl]-6-oxo-4-(trifluoromethyl)-1H-pyridine-3-carboxamide]: the Kd was 24.2 nM.

`CC1CN(c2cc(F)c(-c3ccc(N4CCOCC4)c(F)c3)cc2NC(=O)c2cn(C)c(=O)cc2C(F)F)CCN1C` (stereo in doubt) [Example 478, 4-(difluoromethyl)-N-[4-fluoro-5-(3-fluoro-4-morpholin-4-ylphenyl)-2-[(3R)-3,4-dimethylpiperazin-1-yl]phenyl]-1-methyl-6-oxopyridine-3-carboxamide]: the Kd was determined as 5.32 nM.

Regarding `CC1CN(c2cc(F)c(-c3cnc(N4CCOCC4)nc3)cc2NC(=O)c2c[nH]c(=O)c(C(F)(F)F)c2)CCN1C` (stereo in doubt) [Example 495, N-[4-fluoro-5-(2-morpholin-4-ylpyrimidin-5-yl)-2-[(3R)-3,4-dimethylpiperazin-1-yl]phenyl]-6-oxo-5-(trifluoromethyl)-1H-pyridine-3-carboxamide], the Kd amounted to 24.9 nM.

For the compound `C[C@@H]1CN(c2ccc(-c3cc(NC(=O)c4c[nH]c(=O)cc4C(F)F)c(N4CCN(C)[C@H](C)C4)cc3F)cn2)CCO1` (stereo in doubt) [Example 507, 4-(difluoromethyl)-N-[4-fluoro-2-[(3R)-3,4-dimethylpiperazin-1-yl]-5-[6-[(2R)-2-methylmorpholin-4-yl]pyridin-3-yl]phenyl]-6-oxo-1H-pyridine-3-carboxamide], the Kd was found to be 1.76 nM.

For `CC1CN(c2ccc(-c3cc(NC(=O)c4c[nH]c(=O)cc4C(F)F)c(N4C[C@@H](C)N(C)[C@@H](C)C4)cc3F)cn2)CCO1` (stereo in doubt) [Example 510, 4-(difluoromethyl)-N-[4-fluoro-5-[6-[(2R)-2-methylmorpholin-4-yl]pyridin-3-yl]-2-[(3S,5R)-3,4,5-trimethylpiperazin-1-yl]phenyl]-6-oxo-1H-pyridine-3-carboxamide], the Kd was determined as 0.623 nM.

In the case of `CC1CN(c2ccc(-c3cc(NC(=O)c4cn(C)c(=O)cc4C(F)F)c(N4C[C@@H](C)N(C)[C@@H](C)C4)cc3F)cn2)CCO1` (stereo in doubt) [Example 517, 4-(Difluoromethyl)-N-[4-fluoro-5-[6-[(2R)-2-methylmorpholin-4-yl]pyridin-3-yl]-2-[(3S,5R)-3,4,5-trimethylpiperazin-1-yl]phenyl]-1-methyl-6-oxopyridine-3-carboxamide], the equilibrium dissociation constant (Kd) stood at 5.97 nM.

In the case of `C[C@@H]1CN(c2ccc(-c3cc(NC(=O)c4cn(C)c(=O)cc4C(F)F)c(N4CCN(C)[C@H](C)C4)cc3F)cn2)CCO1` (stereo in doubt) [Example 519, 4-(difluoromethyl)-N-[4-fluoro-2-[(3R)-3,4-dimethylpiperazin-1-yl]-5-[6-[(2R)-2-methylmorpholin-4-yl]pyridin-3-yl]phenyl]-1-methyl-6-oxopyridine-3-carboxamide], the Kd came out at 3.39 nM.

On to `CC1CN(c2cc(F)c(-c3ccc(N4CCNCC4)nc3)cc2NC(=O)c2ccc(F)cc2C(F)(F)F)CCN1C` (stereo in doubt) [Example 530, 4-fluoro-N-[4-fluoro-5-(6-piperazin-1-ylpyridin-3-yl)-2-[(3R)-3,4-dimethylpiperazin-1-yl]phenyl]-2-(trifluoromethyl)benzamide], for which the Kd worked out at 2.16 nM.

As for `CC1CN(c2cc(F)c(-c3ccc(F)c(C(N)=O)c3)cc2NC(=O)c2ccc(F)cc2C(F)(F)F)CCN1C` (stereo in doubt) [Example 554, 2-fluoro-5-[2-fluoro-5-[[4-fluoro-2-(trifluoromethyl)benzoyl]amino]-4-[(3R)-3,4-dimethylpiperazin-1-yl]phenyl]benzamide], the Kd turned out to be 5.3 nM.

As to `CC1CN(c2cc(F)c(-c3ccc(C(N)=O)c(F)c3)cc2NC(=O)c2ccc(F)cc2C(F)(F)F)CCN1C` (stereo in doubt) [Example 555, 2-fluoro-4-[2-fluoro-5-[[4-fluoro-2-(trifluoromethyl)benzoyl]amino]-4-[(3R)-3,4-dimethylpiperazin-1-yl]phenyl]benzamide], the dissociation constant Kd turned out to be 2.94 nM.
